Target: T1, Angiotensin I Converting Enzyme isolated from cultured human aortic endothelial cells (Homo sapiens, UniProt P12821)
T1 construct: host or cells: human aortic endothelial cells (AoEC), lysed with CelLytic M
Experiment: ACE activity assay, ACE isolated from cultured human aortic endothelial cells
Format: biochemical
Conditions: 200 mcg/ml (FIG. 5); read-out: inhibition of ACE1 activity
Method: ACE 1 activity: Effects of New Micronutrient composition on catalytic activity of Angiotensin I Converting Enzyme (ACE) was analyzed using recombinant catalytic ACE domain (Sigma) or ACE isolated from cultured human aortic endothelial cells (AoEC) with ACE Activity Assay Kit (Fluorometric, Sigma, Catalog Number CS0002) in accordance with manufacturer's protocol. For preparation of cell lysate ACE human AoEC (Lonza) were plated in 75 cm2 plastic flask at 6th passage and cultured with EGB-2 endothelial cell culture medium (Lonza) in 5%CO2 at 37 °C until cell forming a confluent layer. Cells were washed twice with 10 ml phosphate buffered solution (PBS) and lysated by scratching and resuspending in 5 ml CelLytic™ M solution (Sigma) after 15 min incubation at room temperature. Results are expressed as percentage of untreated controls presented as averages +/− SD from three replicates. The results on FIG. 4 show concentration dependent inhibitory effect of the micronutrient composition for blood pressure lowering on catalytic activity of Angiotensin1 converting enzyme. Changes in ACE1 activity are expressed in % compared to control. The formula applied at 3 mcg/ml inhibits ACE1 by 20% with the most pronounced inhibitory effect of 90% and 97% obtained at 50 mcg/ml and 200 mcg/ml respectively. […]

T1 sequence (P12821 30-1306): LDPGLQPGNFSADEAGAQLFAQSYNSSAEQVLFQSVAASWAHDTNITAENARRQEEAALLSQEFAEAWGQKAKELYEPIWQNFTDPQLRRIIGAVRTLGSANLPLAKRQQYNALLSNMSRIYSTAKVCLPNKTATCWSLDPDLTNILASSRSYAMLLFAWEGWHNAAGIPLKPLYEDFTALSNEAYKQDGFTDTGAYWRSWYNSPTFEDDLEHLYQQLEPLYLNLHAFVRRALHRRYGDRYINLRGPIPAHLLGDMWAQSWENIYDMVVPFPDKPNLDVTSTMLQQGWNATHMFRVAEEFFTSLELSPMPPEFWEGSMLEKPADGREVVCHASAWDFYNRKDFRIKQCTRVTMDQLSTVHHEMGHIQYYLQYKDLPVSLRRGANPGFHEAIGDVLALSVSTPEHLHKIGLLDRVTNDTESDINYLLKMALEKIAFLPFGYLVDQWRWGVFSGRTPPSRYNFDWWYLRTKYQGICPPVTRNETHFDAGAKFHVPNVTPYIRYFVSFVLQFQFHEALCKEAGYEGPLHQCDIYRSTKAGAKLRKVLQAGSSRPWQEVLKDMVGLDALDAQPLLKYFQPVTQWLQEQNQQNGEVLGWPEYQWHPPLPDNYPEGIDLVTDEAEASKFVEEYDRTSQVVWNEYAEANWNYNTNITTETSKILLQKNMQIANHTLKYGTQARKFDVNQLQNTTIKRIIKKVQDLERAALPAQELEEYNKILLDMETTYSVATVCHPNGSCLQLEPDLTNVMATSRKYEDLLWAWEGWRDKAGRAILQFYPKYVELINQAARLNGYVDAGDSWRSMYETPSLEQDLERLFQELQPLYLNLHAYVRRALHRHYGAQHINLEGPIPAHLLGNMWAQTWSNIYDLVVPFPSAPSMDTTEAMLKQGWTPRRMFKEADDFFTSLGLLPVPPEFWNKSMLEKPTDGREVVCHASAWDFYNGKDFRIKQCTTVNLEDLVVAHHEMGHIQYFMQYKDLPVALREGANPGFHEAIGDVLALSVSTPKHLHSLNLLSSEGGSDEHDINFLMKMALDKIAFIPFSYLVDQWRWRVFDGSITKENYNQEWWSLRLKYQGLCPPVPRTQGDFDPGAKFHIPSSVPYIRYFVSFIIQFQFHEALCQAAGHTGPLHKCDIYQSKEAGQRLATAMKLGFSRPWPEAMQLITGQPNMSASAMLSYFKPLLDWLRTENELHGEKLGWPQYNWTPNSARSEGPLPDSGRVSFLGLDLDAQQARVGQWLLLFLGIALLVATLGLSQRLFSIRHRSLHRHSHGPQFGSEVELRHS

Structure (SMILES): NCCCC[C@H](N[C@@H](CCc1ccccc1)C(=O)O)C(=O)N1CCC[C@H]1C(=O)O [Lisinopril]
- inhibition at 200 µg/mL: 16%

Reference: US11717013B1, “Micronutrient combination to reduce blood pressure” (priority 2022, dated 2023)
